Assays:
Assay type in all cases: cell-based
[1] = system: Acinetobacter baumannii 9010; assay: First screening, agar dilution MIC
Method: (§1) Clinical bacterial isolates from human samples collected in Lille (France) and some collection strains were used. The first screening step on pathogenic bacteria was carried out with crude hydro-alcoholic extracts of different hop parts (Table 1). The second screening was performed using sub-extracts of cones on Gram-positive bacteria, including methicillin-sensitive Staphylococcus aureus (MSSA) and methicillin-resistant Staphylococcus aureus […] (Table 2). These tests were carried out on Petri dishes, Mueller-Hinton Agar (MHA) (Oxoid, UK) was mixed with the plant extract solution in MeOH at 5% (solvent control: 5% MeOH). Final extract concentrations in Petri dishes ranged from 1250 to 4.9 µg/mL. A multi-headed inoculator allowed spotting bacterial strains at 10^5 CFU/mL in cysteinated Ringer (CR) solution (Merck®, France). Minimal Inhibitory Concentrations (MICs) were visually determined after 24 h of incubation at 37 °C.

[2] = system: Acinetobacter baumannii 9011; assay: First screening, agar dilution MIC
Method: as §1

[3] = system: Citrobacter freundii 11041; assay: First screening, agar dilution MIC
Method: as §1

[4] = system: Citrobacter freundii 11042; assay: First screening, agar dilution MIC
Method: as §1

[5] = system: Corynebacterium T25-17; assay: First screening, agar dilution MIC
Method: as §1

[6] = system: Enterobacter cloacae 11050; assay: First screening, agar dilution MIC
Method: as §1

[7] = system: Enterobacter cloacae 11051; assay: First screening, agar dilution MIC
Method: as §1

[8] = system: Enterobacter cloacae 11053; assay: First screening, agar dilution MIC
Method: as §1

[9] = system: Enterococcus faecalis C159-6; assay: First screening, agar dilution MIC
Method: as §1

[10] = system: Enterococcus sp. 8153; assay: First screening, agar dilution MIC
Method: as §1

[11] = system: Escherichia coli 8138; assay: First screening, agar dilution MIC
Method: as §1

[12] = system: Escherichia coli 8157; assay: First screening, agar dilution MIC
Method: as §1

[13] = system: Escherichia coli ATCC 25922; assay: First screening, agar dilution MIC
Method: as §1

[14] = system: Klebsiella pneumoniae 11016; assay: First screening, agar dilution MIC
Method: as §1

[15] = system: Klebsiella pneumoniae 11017; assay: First screening, agar dilution MIC
Method: as §1

[16] = system: Mycobacterium smegmatis 5003; assay: First screening, agar dilution MIC
Method: as §1

[17] = system: Proteus mirabilis 11060; assay: First screening, agar dilution MIC
Method: as §1

[18] = system: Providencia stuartii 11038; assay: First screening, agar dilution MIC
Method: as §1

[19] = system: Pseudomonas aeruginosa 8131; assay: First screening, agar dilution MIC
Method: as §1

[20] = system: Pseudomonas aeruginosa ATCC 27583; assay: First screening, agar dilution MIC
Method: as §1

[21] = system: Salmonella sp. 11033; assay: First screening, agar dilution MIC
Method: as §1

[22] = system: Serratia marcescens 11056; assay: First screening, agar dilution MIC
Method: as §1

[23] = system: Serratia marcescens 11057; assay: First screening, agar dilution MIC
Method: as §1

[24] = system: Staphylococcus aureus 8146; assay: First screening, agar dilution MIC
Method: as §1

[25] = system: Staphylococcus aureus 8147; assay: First screening, agar dilution MIC
Method: as §1

[26] = system: Staphylococcus epidermidis 10282; assay: First screening, agar dilution MIC
Method: as §1

[27] = system: Staphylococcus epidermidis 5001; assay: First screening, agar dilution MIC
Method: as §1

[28] = system: Staphylococcus lugdunensis T26A3; assay: First screening, agar dilution MIC
Method: as §1

[29] = system: Staphylococcus warneri T12A12; assay: First screening, agar dilution MIC
Method: as §1

[30] = system: Stenotrophomonas maltophilia; assay: First screening, agar dilution MIC
Method: as §1

[31] = system: Streptococcus agalactiae T25-7; assay: First screening, agar dilution MIC
Method: as §1

[32] = system: Streptococcus agalactiae T53C2; assay: First screening, agar dilution MIC
Method: as §1

[33] = system: Streptococcus dysgalactiae T46C14; assay: First screening, agar dilution MIC
Method: as §1

[34] = system: Corynebacterium T25-17; assay: Second screening, agar dilution MIC; conditions: Table 2
Method: as §1

[35] = system: Enterococcus faecalis T26-B7; assay: Second screening, agar dilution MIC
Method: as §1

[36] = system: Enterococcus faecalis T34-2; assay: Second screening, agar dilution MIC
Method: as §1

[37] = system: Enterococcus faecalis T37A4; assay: Second screening, agar dilution MIC
Method: as §1

[38] = system: Enterococcus faecalis T39-C11; assay: Second screening, agar dilution MIC
Method: as §1

[39] = system: Staphylococcus aureus 8147; assay: Second screening, agar dilution MIC; conditions: Table 2
Method: as §1

[40] = system: Staphylococcus aureus CIP 224; assay: Second screening, agar dilution MIC
Method: as §1

[41] = system: Staphylococcus aureus T1.1; assay: Second screening, agar dilution MIC
Method: as §1

[42] = system: Staphylococcus aureus T25.10; assay: Second screening, agar dilution MIC
Method: as §1

[43] = system: Staphylococcus aureus T25.3; assay: Second screening, agar dilution MIC
Method: as §1

[44] = system: Staphylococcus aureus T25.9; assay: Second screening, agar dilution MIC
Method: as §1

[45] = system: Staphylococcus aureus T26A4; assay: Second screening, agar dilution MIC
Method: as §1

[46] = system: Staphylococcus aureus T28.1; assay: Second screening, agar dilution MIC
Method: as §1

[47] = system: Staphylococcus aureus T36B1; assay: Second screening, agar dilution MIC
Method: as §1

[48] = system: Staphylococcus aureus T47A12; assay: Second screening, agar dilution MIC
Method: as §1

[49] = system: Staphylococcus aureus T6.7; assay: Second screening, agar dilution MIC
Method: as §1

[50] = system: Staphylococcus epidermidis 5001; assay: Second screening, agar dilution MIC; conditions: Table 2
Method: as §1

[51] = system: Staphylococcus lugdunensis T26A3; assay: Second screening, agar dilution MIC; conditions: Table 2
Method: as §1

[52] = system: Staphylococcus pettenkoferi T3.3; assay: Second screening, agar dilution MIC
Method: as §1

[53] = system: Staphylococcus saprophyticus 08237; assay: Second screening, agar dilution MIC
Method: as §1

[54] = system: Streptococcus agalactiae 13225; assay: Second screening, agar dilution MIC
Method: as §1

[55] = system: Streptococcus agalactiae 13226; assay: Second screening, agar dilution MIC
Method: as §1

[56] = system: Streptococcus agalactiae T25.7; assay: Second screening, agar dilution MIC
Method: as §1

[57] = system: Streptococcus agalactiae T38.2; assay: Second screening, agar dilution MIC
Method: as §1

[58] = system: Streptococcus agalactiae T40A2; assay: Second screening, agar dilution MIC
Method: as §1

SMILES: CNC(C)C1CCC(N)C(OC2C(N)CC(N)C(OC3OCC(C)(O)C(NC)C3O)C2O)O1 (stereo not shown) [GEN, Gentamicin]
- Susceptibility to GEN [1]: S (Gentamicin (GEN) S ≤ 4)
- Susceptibility to GEN [2]: R (R > 8)
- Susceptibility to GEN [3]: S (Gentamicin (GEN) S ≤ 4)
- Susceptibility to GEN [4]: S (Gentamicin (GEN) S ≤ 4)
- Susceptibility to GEN [5]: S (Gentamicin (GEN) S ≤ 4)
- Susceptibility to GEN [6]: S (Gentamicin (GEN) S ≤ 4)
- Susceptibility to GEN [7]: R (R > 8)
- Susceptibility to GEN [8]: S (Gentamicin (GEN) S ≤ 4)
- Susceptibility to GEN [9]: R (R > 8)
- Susceptibility to GEN [10]: R (R > 8)
- Susceptibility to GEN [11]: S (Gentamicin (GEN) S ≤ 4)
- Susceptibility to GEN [12]: S (Gentamicin (GEN) S ≤ 4)
- Susceptibility to GEN [13]: S (Gentamicin (GEN) S ≤ 4)
- Susceptibility to GEN [14]: S (Gentamicin (GEN) S ≤ 4)
- Susceptibility to GEN [15]: S (Gentamicin (GEN) S ≤ 4)
- Susceptibility to GEN [16]: S (Gentamicin (GEN) S ≤ 4)
- Susceptibility to GEN [17]: S (Gentamicin (GEN) S ≤ 4)
- Susceptibility to GEN [18]: S (Gentamicin (GEN) S ≤ 4)
- Susceptibility to GEN [19]: S (Gentamicin (GEN) S ≤ 4)
- Susceptibility to GEN [20]: R (R > 8)
- Susceptibility to GEN [21]: S (Gentamicin (GEN) S ≤ 4)
- Susceptibility to GEN [22]: S (Gentamicin (GEN) S ≤ 4)
- Susceptibility to GEN [23]: R (R > 8)
- Susceptibility to GEN [24]: S (Gentamicin (GEN) S ≤ 4)
- Susceptibility to GEN [25]: S (Gentamicin (GEN) S ≤ 4)
- Susceptibility to GEN [26]: S (Gentamicin (GEN) S ≤ 4)
- Susceptibility to GEN [27]: S (Gentamicin (GEN) S ≤ 4)
- Susceptibility to GEN [28]: S (Gentamicin (GEN) S ≤ 4)
- Susceptibility to GEN [29]: S (Gentamicin (GEN) S ≤ 4)
- Susceptibility to GEN [30]: S (Gentamicin (GEN) S ≤ 4)
- Susceptibility to GEN [31]: R (R > 8)
- Susceptibility to GEN [32]: S (Gentamicin (GEN) S ≤ 4)
- Susceptibility to GEN [33]: S (Gentamicin (GEN) S ≤ 4)
- Susceptibility to GEN [34]: S (Gentamicin (GEN) S ≤ 4)
- Susceptibility to GEN [35]: R (R > 8)
- Susceptibility to GEN [36]: S (Gentamicin (GEN) S ≤ 4)
- Susceptibility to GEN [37]: R (R > 8)
- Susceptibility to GEN [38]: S (Gentamicin (GEN) S ≤ 4)
- Susceptibility to GEN [39]: S (Gentamicin (GEN) S ≤ 4)
- Susceptibility to GEN [40]: S (Gentamicin (GEN) S ≤ 4)
- Susceptibility to GEN [41]: S (Gentamicin (GEN) S ≤ 4)
- Susceptibility to GEN [42]: S (Gentamicin (GEN) S ≤ 4)
- Susceptibility to GEN [43]: S (Gentamicin (GEN) S ≤ 4)
- Susceptibility to GEN [44]: S (Gentamicin (GEN) S ≤ 4)
- Susceptibility to GEN [45]: S (Gentamicin (GEN) S ≤ 4)
- Susceptibility to GEN [46]: S (Gentamicin (GEN) S ≤ 4)
- Susceptibility to GEN [47]: S (Gentamicin (GEN) S ≤ 4)
- Susceptibility to GEN [48]: S (Gentamicin (GEN) S ≤ 4)
- Susceptibility to GEN [49]: S (Gentamicin (GEN) S ≤ 4)
- Susceptibility to GEN [50]: S (Gentamicin (GEN) S ≤ 4)
- Susceptibility to GEN [51]: S (Gentamicin (GEN) S ≤ 4)
- Susceptibility to GEN [52]: S (Gentamicin (GEN) S ≤ 4)
- Susceptibility to GEN [53]: S (Gentamicin (GEN) S ≤ 4)
- Susceptibility to GEN [54]: S (Gentamicin (GEN) S ≤ 4)
- Susceptibility to GEN [55]: S (Gentamicin (GEN) S ≤ 4)
- Susceptibility to GEN [56]: I
- Susceptibility to GEN [57]: S (Gentamicin (GEN) S ≤ 4)
- Susceptibility to GEN [58]: S (Gentamicin (GEN) S ≤ 4)
